Consider 26 compounds from US12653814B2, “Benzimidazolone-based cinnamamide derivative as TRPV1 antagonist and pharmaceutical composition for treatment or prevention of pain containing same as active ingredient” (JMACKEM CO., LTD, priority 2020, dated 2026).

Test [1] has as its target T1, human TRPV1 (hTRPV1) (Homo sapiens, UniProt Q8NER1).
T1 construct: host or cells: HEK (PrecisION hTRPV1-HEK recombinant cell line)
Kind of test: Ca2+ influx assay, antagonism against capsaicin in hTRPV1-HEK recombinant cells. The test is classed as cell-based. The note with it: capsaicin 10 nM as activator, Fluo4-NW fluorescence, read-out: hTRPV1 IC50 [cap].

Test [2] deals with T1, human TRPV1 (hTRPV1). Kind of test: Evaluation of human pH inhibitory activity in hTRPV1-HEK recombinant cells. The note with it: inhibition of activation at final pH 6.0, test substance 3 μM. The format is cell-based. The procedure:
Evaluation of Human pH Inhibitory Activity
PrecisION™ hTRPV1-HEK recombinant cells (CYL3063) were purchased from Millipore and used. After culturing the above cells under the conditions of 37° C. and 5% CO2, the cells were inoculated in a 96-well plate at the density of 5×10^4 cells/well, followed by culture for 16 hours. Then, the medium was removed and 100 uL of a staining solution was put into each well, followed by culture for 30 minutes under the conditions of 37° C. and 5% CO2. After 30 minutes, all of the existing staining solution was removed and replaced with 100 uL of HBSS. Thereafter, the cells were acclimatized to room temperature for 15 minutes, and the test substances (example compounds and comparative example compounds of the present invention) were added to each well, followed by culture at room temperature for 15 minutes. Then, the final pH was adjusted to 6.0 using MES, and fluorescence was measured (ex485/em535). In the pH assay, the efficacy of the drug was evaluated using BCTC as a TRPV1 antagonist.

T1 sequence (Q8NER1 whole entry): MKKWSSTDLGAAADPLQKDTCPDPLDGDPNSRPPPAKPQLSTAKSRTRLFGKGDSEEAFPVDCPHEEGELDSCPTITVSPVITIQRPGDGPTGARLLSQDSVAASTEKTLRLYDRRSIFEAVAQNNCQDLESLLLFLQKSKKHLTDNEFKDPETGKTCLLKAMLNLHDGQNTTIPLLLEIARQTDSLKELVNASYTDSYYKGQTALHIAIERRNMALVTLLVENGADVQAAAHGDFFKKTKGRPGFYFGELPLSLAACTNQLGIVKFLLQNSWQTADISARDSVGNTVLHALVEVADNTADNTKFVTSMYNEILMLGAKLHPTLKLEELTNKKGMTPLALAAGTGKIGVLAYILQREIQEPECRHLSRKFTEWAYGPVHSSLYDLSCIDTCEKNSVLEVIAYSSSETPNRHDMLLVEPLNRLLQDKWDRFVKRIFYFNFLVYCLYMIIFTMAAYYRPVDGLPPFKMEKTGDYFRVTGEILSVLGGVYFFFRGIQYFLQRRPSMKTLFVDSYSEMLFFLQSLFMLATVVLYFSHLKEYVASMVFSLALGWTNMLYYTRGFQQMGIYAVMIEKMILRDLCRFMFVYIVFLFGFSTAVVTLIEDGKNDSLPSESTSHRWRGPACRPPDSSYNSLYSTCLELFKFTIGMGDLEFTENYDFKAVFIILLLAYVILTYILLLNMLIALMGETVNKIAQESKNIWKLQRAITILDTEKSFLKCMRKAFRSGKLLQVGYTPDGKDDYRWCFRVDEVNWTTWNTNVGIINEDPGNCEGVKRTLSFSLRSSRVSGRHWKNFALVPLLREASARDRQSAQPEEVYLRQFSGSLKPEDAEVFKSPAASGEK

On to `CC1(c2cc(/C=C/C(=O)Nc3cccc4[nH]c(=O)[nH]c34)n(-c3cccc(Cl)c3)n2)CC1` [Example 52, (E)-3-(1-(3-chlorophenyl)-3-(1-methylcyclopropyl)-1H-pyrazol-5-yl)-N-(2-oxo-2,3-dihydro-1H-benzo[d]imidazol-4-yl)acrylamide], for which the IC50 on human TRPV1 (hTRPV1) [1] is above 160 nM. Regarding `CCCN(CCC)c1nc(C(F)(F)F)ccc1/C=C/C(=O)Nc1cccc2[nH]c(=O)[nH]c12` [Example 7, (E)-3-(2-(dipropylamino)-6-(trifluoromethyl)pyridin-3-yl)-N-(2-oxo-2,3-dihydro-1H-benzo[d]imidazol-4-yl)acrylamide], on human TRPV1 (hTRPV1) [2], the “hTRPV1 pH (%, 3 μM)” value turned out to be 89.87%. For the same compound, the IC50 at human TRPV1 (hTRPV1) [1] was 23.3 nM.

As for `CC(C)c1ccc(/C=C/C(=O)Nc2cccc3[nH]c(=O)[nH]c23)c(OCC2CC2)n1` [Example 19, (E)-3-(2-(cyclopropylmethoxy)-6-isopropylpyridin-3-yl)-N-(2-oxo-2,3-dihydro-1H-benzo[d]imidazol-4-yl)acrylamide], the IC50 on human TRPV1 (hTRPV1) [1] was 410 nM. For the compound `O=C(Nc1cccc2[nH]c(=O)[nH]c12)C1CC1c1cc(C(F)(F)F)nn1-c1cccc(Cl)c1` (stereo not shown) [Example 63, 2-(1-(3-chlorophenyl)-3-(trifluoromethyl)-1H-pyrazol-5-yl)-N-(2-oxo-2,3-dihydro-1H-benzo[d]imidazol-4-yl)cyclopropane-1-carboxamide], the “hTRPV1 pH (%, 3 μM)” value on human TRPV1 (hTRPV1) [2] was 0.53%. Moreover, at human TRPV1 (hTRPV1) [1], the IC50 was 10.3 nM. `CC(C)(C)COc1nc(C(F)(F)F)ccc1/C=C/C(=O)Nc1cccc2[nH]c(=O)[nH]c12` [Example 15, (E)-3-(2-(neopentyloxy)-6-(trifluoromethyl)pyridin-3-yl)-N-(2-oxo-2,3-dihydro-1H-benzo[d]imidazol-4-yl)acrylamide]: the IC50 on human TRPV1 (hTRPV1) [1] was 202 nM. On to `CCCCOc1nc(C(F)(F)F)ccc1/C=C/C(=O)Nc1cccc2[nH]c(=O)[nH]c12` [Example 8, (E)-3-(2-butoxy-6-(trifluoromethyl)pyridin-3-yl)-N-(2-oxo-2,3-dihydro-1H-benzo[d]imidazol-4-yl)acrylamide], for which the “hTRPV1 pH (%, 3 μM)” value at human TRPV1 (hTRPV1) [2] worked out at 81.24%. Also, at human TRPV1 (hTRPV1) [1], the IC50 turned out to be 27.3 nM.

Regarding `CC(C)c1cc(/C=C/C(=O)Nc2cccc3[nH]c(=O)[nH]c23)n(-c2cccc(Cl)c2)n1` [Example 51, (E)-3-(1-(3-chlorophenyl)-3-isopropyl-1H-pyrazol-5-yl)-N-(2-oxo-2,3-dihydro-1H-benzo[d]imidazol-4-yl)acrylamide], on human TRPV1 (hTRPV1) [1], the IC50 was above 160 nM. Consider `O=C(/C=C/c1cc(C(F)(F)F)nn1-c1cccc(Cl)c1)Nc1cccc2[nH]c(=O)[nH]c12` [Example 47, (E)-3-(1-(3-chlorophenyl)-3-(trifluoromethyl)-1H-pyrazol-5-yl)-N-(2-oxo-2,3-dihydro-1H-benzo[d]imidazol-4-yl)acrylamide], for which, on human TRPV1 (hTRPV1) [2], the “hTRPV1 pH (%, 3 μM)” value is listed as 37.26%. Also, the IC50 at human TRPV1 (hTRPV1) [1] was 15.9 nM. On to `CC(C)(C)C#Cc1nc(C(F)(F)F)ccc1/C=C/C(=O)Nc1cccc2[nH]c(=O)[nH]c12` [Example 39, (E)-3-(2-(3,3-dimethyl-1-butyn-1-yl)-6-(trifluoromethyl)pyridin-3-yl)-N-(2-oxo-2,3-dihydro-1H-benzo[d]imidazol-4-yl)acrylamide], for which, on human TRPV1 (hTRPV1) [2], the “hTRPV1 pH (%, 3 μM)” value came out at 67.89%. Moreover, the IC50 at human TRPV1 (hTRPV1) [1] was 35.4 nM. The like results for `CC(C)(C)c1cc(/C=C/C(=O)Nc2cccc3[nH]c(=O)[nH]c23)n(-c2cccc(Cl)c2)n1` [Example 53, (E)-3-(3-(tert-butyl)-1-(3-chlorophenyl)-1H-pyrazol-5-yl)-N-(2-oxo-2,3-dihydro-1H-benzo[d]imidazol-4-yl)acrylamide] were, in that order, 78.21% and 79.8 nM. Consider `CC(C)c1cccc(-c2nc(C(F)(F)F)ccc2/C=C/C(=O)Nc2cccc3[nH]c(=O)[nH]c23)c1` [Example 32, (E)-3-(2-(3-isopropylphenyl)-6-(trifluoromethyl)pyridin-3-yl)-N-(2-oxo-2,3-dihydro-1H-benzo[d]imidazol-4-yl)acrylamide], for which the “hTRPV1 pH (%, 3 μM)” value on human TRPV1 (hTRPV1) [2] is reported as 67.88%. On human TRPV1 (hTRPV1) [1], the IC50 was 23.7 nM. For `O=C(/C=C/c1ccc(C(F)(F)F)nc1SC1CCCCC1)Nc1cccc2[nH]c(=O)[nH]c12` [Example 29, (E)-3-(2-(cyclohexylthio)-6-(trifluoromethyl)pyridin-3-yl)-N-(2-oxo-2,3-dihydro-1H-benzo[d]imidazol-4-yl)acrylamide], the IC50 at human TRPV1 (hTRPV1) [1] is above 100 nM. As for `O=C(/C=C/c1ccc(C(F)(F)F)nc1-c1ccc(F)cc1)Nc1cccc2[nH]c(=O)[nH]c12` [Example 34, (E)-3-(2-(4-fluorophenyl)-6-(trifluoromethyl)pyridin-3-yl)-N-(2-oxo-2,3-dihydro-1H-benzo[d]imidazol-4-yl)acrylamide], the “hTRPV1 pH (%, 3 μM)” value on human TRPV1 (hTRPV1) [2] amounted to 37.85%. Further, the IC50 at human TRPV1 (hTRPV1) [1] came to 11.1 nM. As to `CC(C)(C)c1ccc(/C=C/C(=O)Nc2cccc3[nH]c(=O)[nH]c23)c(OCC2CC2)n1` [Example 23, (E)-3-(6-(tert-butyl)-2-(cyclopropylmethoxy)pyridin-3-yl)-N-(2-oxo-2,3-dihydro-1H-benzo[d]imidazol-4-yl)acrylamide], at human TRPV1 (hTRPV1) [1], the IC50 was 217 nM.

On to `CC(C)c1nc(-c2cccc(Cl)c2)c(/C=C/C(=O)Nc2cccc3[nH]c(=O)[nH]c23)s1` [Example 55, (E)-3-(4-(3-chlorophenyl)-2-isopropylthiazol-5-yl)-N-(2-oxo-2,3-dihydro-1H-benzo[d]imidazol-4-yl)acrylamide], for which the 50% inhibitory concentration (IC50) on human TRPV1 (hTRPV1) [1] is above 160 nM. Same read-out and setting: under `CC(C)(C)CCc1nc(C(F)(F)F)ccc1/C=C/C(=O)Nc1cccc2[nH]c(=O)[nH]c12` [Example 40, (E)-3-(2-(3,3-dimethylbutyl)-6-(trifluoromethyl)pyridin-3-yl)-N-(2-oxo-2,3-dihydro-1H-benzo[d]imidazol-4-yl)acrylamide] stands 178 nM; under `CC1(c2cc(C3CC3C(=O)Nc3cccc4[nH]c(=O)[nH]c34)n(-c3cccc(Cl)c3)n2)CC1` (stereo not shown) [Example 67, 2-(1-(3-chlorophenyl)-3-(1-methylcyclopropyl)-1H-pyrazol-5-yl)-N-(2-oxo-2,3-dihydro-1H-benzo[d]imidazol-4-yl)cyclopropane-1-carboxamide], above 160 nM. In the case of `O=C(/C=C/c1ccc(C(F)(F)F)nc1C1CCCC1)Nc1cccc2[nH]c(=O)[nH]c12` [Example 41, (E)-3-(2-cyclopentyl-6-(trifluoromethyl)pyridin-3-yl)-N-(2-oxo-2,3-dihydro-1H-benzo[d]imidazol-4-yl)acrylamide], the IC50 on human TRPV1 (hTRPV1) [1] was 123 nM. With `CC(C)c1cc(C2CC2C(=O)Nc2cccc3[nH]c(=O)[nH]c23)n(-c2cccc(Cl)c2)n1` (stereo not shown) [Example 65, 2-(1-(3-chlorophonyl)-3-isopropyl-1H-pyrazol-5-yl)-N-(2-oxo-2,3-dihydro-1H-benzo[d]imidazol-4-yl)cyclopropane-1-carboxamide], on human TRPV1 (hTRPV1) [1], the IC50 is above 160 nM.

As for `CCCCCCOc1nc(C(F)(F)F)ccc1/C=C/C(=O)Nc1cccc2[nH]c(=O)[nH]c12` [Example 9, (E)-3-(2-(hexyloxy)-6-(trifluoromethyl)pyridin-3-yl)-N-(2-oxo-2,3-dihydro-1H-benzo[d]imidazol-4-yl)acrylamide], the IC50 at human TRPV1 (hTRPV1) [1] is above 50 nM. `O=C(/C=C/c1ccc(C(F)(F)F)nc1SCC1CC1)Nc1cccc2[nH]c(=O)[nH]c12` [Example 28, (E)-3-(2-((cyclopropylmethyl)thio)-6-(trifluoromethyl)pyridin-3-yl)-N-(2-oxo-2,3-dihydro-1H-benzo[d]imidazol-4-yl)acrylamide]: the IC50 on human TRPV1 (hTRPV1) [1] is above 100 nM. Same read-out and setting: next, `O=C(/C=C/c1ccc(C2CC2)nc1OCC1CC1)Nc1cccc2[nH]c(=O)[nH]c12` [Example 18, (E)-3-(6-cyclopropyl-2-(cyclopropylmethoxy)pyridin-3-yl)-N-(2-oxo-2,3-dihydro-1H-benzo[d]imidazol-4-yl)acrylamide]: 117 nM; `CC(C)(C)c1nc(-c2cccc(Cl)c2)c(/C=C/C(=O)Nc2cccc3[nH]c(=O)[nH]c23)s1` [Example 58, (E)-3-(2-(tert-butyl)-4-(3-chlorophenyl)thiazol-5-yl)-N-(2-oxo-2,3-dihydro-1H-benzo[d]imidazol-4-yl)acrylamide]: 103 nM. Same read-out and setting: under `O=C(Nc1cccc2[nH]c(=O)[nH]c12)C1CC1c1cc(C2CC2)nn1-c1cccc(Cl)c1` (stereo not shown) [Example 66, 2-(1-(3-chlorophenyl)-3-cyclopropyl-1H-pyrazol-5-yl)-N-(2-oxo-2,3-dihydro-1H-benzo[d]imidazol-4-yl)cyclopropane-1-carboxamide] stands above 160 nM.

With `CC(F)(F)c1cc(C2CC2C(=O)Nc2cccc3[nH]c(=O)[nH]c23)n(-c2cccc(Cl)c2)n1` (stereo not shown) [Example 64, 2-(1-(3-chlorophenyl)-3-(1,1-difluoroethyl)-1H-pyrazol-5-yl)-N-(2-oxo-2,3-dihydro-1H-benzo[d]imidazol-4-yl)cyclopropane-1-carboxamide], the IC50 on human TRPV1 (hTRPV1) [1] was above 160 nM. Turning to `CC(C)(C)c1cc(C2CC2C(=O)Nc2cccc3[nH]c(=O)[nH]c23)n(-c2cccc(Cl)c2)n1` (stereo not shown) [Example 68, 2-(3-(tert-butyl)-1-(3-chlorophenyl)-1H-pyrazol-5-yl)-N-(2-oxo-2,3-dihydro-1H-benzo[d]imidazol-4-yl)cyclopropane-1-carboxamide], the IC50 on human TRPV1 (hTRPV1) [1] is 139 nM.
